Data taken from patent US5654451A, “Amino acids and peptides having modified C-terminals and modified N-terminals” (Magainin Pharmaceuticals Inc., priority 1995, dated 1997).
In brackets after ≈: the same amount, converted by molar mass.

Key:
Experiment in all cases: Antimicrobial assay (MIC, microtiter broth dilution)
Type in all cases: cell-based
C. albicans = conditions: for MIC C. albicans: Table I; for MIC Candida: Table VI
Procedure: (§1) The procedure for the antimicrobial assay is based upon the guidelines of the National Committee for Clinical Laboratory Standards, Document M7-T2, Volume 8, No. 8, 1988.
(§2) 1-5×10^5 CFUs/ml of either S. aureus ATCC 25923, E. coli ATCC 25922, P. aeruginosa ATCC 27853, or C. albicans were added to the wells in full strength Mueller Hinton broth (BBL 11443) from a mid-log culture. The inoculum is standardized spectrophotometrically at 600 nm and is verified by colony counts. The plates are incubated for 16-20 hours at 37° C., and the minimal inhibitory concentrations (MIC) for the compounds are determined. Minimal inhibitory concentration is defined as the lowest concentration of amino acid or peptide which produces a clear well in the microtiter plate.

E. coli = tested on: E. coli
Procedure: as §1, §2

P. aeruginosa = conditions: for MIC P aeruginosa: Table I, P. aeruginosa ATCC 27853; for MIC Psuedo: Table VI
Procedure: as §1, §2

S. aureus = conditions: for MIC S. aureus: Table I, S. aureus ATCC 25923; for MIC Staph: Table VI
Procedure: as §1, §2

SMILES | MIC C. albicans (C. albicans) [µg/mL] | MIC E. coli (E. coli; Table I, E. coli ATCC 25922) [µg/mL] | MIC P aeruginosa (P. aeruginosa) [µg/mL] | MIC S. aureus (S. aureus) | MIC Candida (C. albicans) [µg/mL] | MIC E. coli (E. coli; Table VI) [µg/mL] | MIC Psuedo (P. aeruginosa) [µg/mL] | MIC Staph (S. aureus) [µg/mL]
NC(N)=NCCCC(N)C(=O)NCCCCCCCCCCCCNC(=O)C(N)CCCN=C(N)N (stereo not shown) [Compound 8, 1,12-[di-arginyl]diaminododecane] | > 256 | > 256 | > 256 | 128 µg/mL (≈ 250 µM) | – | – | – | –
CCCCCCCNC(=O)C(Cc1ccc(C(=N)N)cc1)NC(=N)N (stereo not drawn) [Compound 29, p-guanyl-N-α-amidino-phenylalanyl heptylamide] | 256 (≈ 739 µM) | > 256 | > 256 | 64 µg/mL (≈ 185 µM) | – | – | – | –
CCCCCCCCN(CCCCCCCC)C(=O)C(Cc1ccccc1)N=C(N)N (stereo not drawn) [Compound 32, N-α-amidino-phenylalanyl dioctylamide] | 2 (≈ 4.64 µM) | 8 (≈ 18.6 µM) | 128 (≈ 297 µM) | 1,2 μg/ml | – | – | – | –
CCCCCCCCCCCCNC(=O)c1ccc(CNC(=N)N)cc1 [Compound 38, P-Guanidino-methyl-benzoyl-dodecylamide] | – | – | – | – | 4 (≈ 11.1 µM) | 16 (≈ 44.4 µM) | 64 (≈ 178 µM) | 1 to 2
N=C(N)NC(Cc1ccccc1)C(=O)Nc1ccc(C=Cc2ccc(NC(=O)C(Cc3ccccc3)NC(=N)N)cc2)cc1 (stereo not drawn) [Compound 47, 4,4'-[Di-(N^α -amidino-Phe)] diaminostilbene] | – | – | – | – | 256 (≈ 435 µM) | 16 (≈ 27.2 µM) | 32 (≈ 54.4 µM) | 05 to 10
NC(N)=NCCCC(N)C(=O)Nc1ccc(C=Cc2ccc(NC(=O)C(N)CCCN=C(N)N)cc2)cc1 (stereo not shown) [Compound 49, 4,4'-[Di-Arg] diaminostilbene] | – | – | – | – | 64 (≈ 122 µM) | 256 (≈ 490 µM) | 128 (≈ 245 µM) | 8 (≈ 15.3 µM)
CCCCCCCCN(CCCCCCCC)C(=O)C(Cc1c[nH]c2ccccc12)NC(=N)N (stereo not drawn) [Compound 66, N^α -Amidino-Trp-dioctylamide] | – | – | – | – | 16 (≈ 34.1 µM) | 256 (≈ 545 µM) | 256 (≈ 545 µM) | 8 (≈ 17 µM)
CCCCCN(CCCCC)C(=O)C(Cc1ccccc1)NC(=N)N (stereo not drawn) [Compound 67, N^α -Amidino-Phe-dipentylamide] | – | – | – | – | 64 (≈ 185 µM) | 64 (≈ 185 µM) | 128 (≈ 369 µM) | 4 (≈ 11.5 µM)
CCCCCCN(CCCCCC)C(=O)C(Cc1ccccc1)NC(=N)N (stereo not drawn) [Compound 68, N^α -Amidino-Phe-dihexylamide] | – | – | – | – | 4 to 16 | 16 to 32 | 16 to 64 | 0.5 to 1.0
CCCCCCCCN(CCCCCCCC)C(=O)[C@@H](Cc1ccccc1)NC(=N)N [Compound 70, N^α -Amidino-D Phe-dioctylamide] | – | – | – | – | 2 (≈ 4.64 µM) | 64 (≈ 149 µM) | 256 (≈ 594 µM) | 2 (≈ 4.64 µM)
CCCCCCCCN(CCCCCCCC)C(=O)C(Cc1ccc2ccccc2c1)N=C(N)N (stereo not drawn) [Compound 73, N^α -Amidino-β-Nal-dioctylamide] | – | – | – | – | 4 (≈ 8.32 µM) | > 256 | > 256 | 4 (≈ 8.32 µM)
CCCCCCCCN(CCCCCCCC)C(=O)C(CC1CCCCC1)NC(=N)N (stereo not drawn) [Compound 74, N^α -Amidino-Cha-dioctylamide] | – | – | – | – | 2 (≈ 4.58 µM) | > 256 | > 256 | 2 (≈ 4.58 µM)
N=C(N)NC(Cc1ccccc1)C(=O)NC12CC3CC(CC(C3)C1)C2 (stereo not drawn) [Compound 76, N^α -Amidino-Phe-adamantanamide] | – | – | – | – | 128 (≈ 376 µM) | 256 (≈ 752 µM) | 256 (≈ 752 µM) | 16 (≈ 47 µM)
